Data published in patent US11382946B2, “Multi-functional peptides and use thereof” (NOVACELL TECHNOLOGY INC., priority 2019, dated 2022).
pEC50: −log10 of the molar value. Non-standard residues stand in square brackets, D forms with d. Residues, ends and D or L forms follow the SMILES beside them. 2Nal = N[C@@H](Cc1ccc2ccccc2c1)C(=O)O; Nle = CCCC[C@H](N)C(=O)O

Columns and labels:
FPR2 = biological target: T1, FPR2 (Homo sapiens, UniProt P25090); assay: FPR2 activation by intracellular calcium ion increase (Fura-2/AM) in FPR2-RBL cells; assay type: cell-based; details: RBL cells overexpressing FPR2
T1 construct: expressed in transfected cells; host or cells: RBL cells overexpressing FPR2 (FPR2-RBL)
T1 sequence (P25090 1-351): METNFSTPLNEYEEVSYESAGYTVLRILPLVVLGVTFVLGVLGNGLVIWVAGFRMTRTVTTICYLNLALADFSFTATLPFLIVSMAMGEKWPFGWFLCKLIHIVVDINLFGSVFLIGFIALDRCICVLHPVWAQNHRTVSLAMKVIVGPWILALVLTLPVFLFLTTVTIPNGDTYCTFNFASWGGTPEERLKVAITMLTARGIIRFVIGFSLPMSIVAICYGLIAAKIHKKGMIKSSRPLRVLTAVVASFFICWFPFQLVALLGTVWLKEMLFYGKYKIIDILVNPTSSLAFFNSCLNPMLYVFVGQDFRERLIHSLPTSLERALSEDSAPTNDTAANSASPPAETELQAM
Experimental: The present inventors observed a change in calcium ion permeability of the candidate peptides according to an embodiment of the present invention in order to determine whether they can activate the immunomodulatory function in a body or not. Particularly, intracellular concentration of calcium ions was measured to confirm that the peptide activates FPR2. RBL cells that do neither express FPR1 nor FPR2, RBL cells overexpressed FPR1 (FPR1-RBL) and RBL cells that overexpressed FPR2 (FPR2-RBL) were used and Fura-2/AM which is a fluorophore having high binding affinity to calcium in order to measure intracellular calcium ion level sensitively. For this purpose, cells were cultured in RPMI medium supplemented with 10% fetal bovine serum and harvested by centrifugation in log phase (mid-log phase, 1-3×10^7 cells/ml), and then washed several times with RPMI medium not supplemented with fetal bovine serum, and then the cells were resuspended in RPMI medium to 1×10^7 cells/ml. Subsequently, a final 3 μM concentration of Fura-2/AM was added and the cells were incubated for 45 minutes in a 37° C., 5% CO2 incubator. After the appropriated time, the cells are harvested, washed again with RPMI medium, and then suspended in the appropriate amount of RPMI medium supplemented with 250 μM of sulfinpyrazone, in order to prevent loss of Fura-2 entering the cells. About 2×10^6 cells were taken each time, harvested by rapid centrifugation, and resuspended in 1 ml of a Locke solution without addition of calcium ions and EGTA added, and the ratio of absorbance at two wavelengths of 340 nm and 380 nm on a spectrophotometer were monitored by treating the peptides according to an embodiment of the present invention at different concentrations (1 μM, 0.1 μM, and 0.01 μM) at intervals of about 1 minute, and then the difference in absorbance at two wavelengths was investigated. It was converted to the concentration of free calcium ions into cells according to the method of Grynkiewicz.

P. aeruginosa = assay type: cell-based, Pseudomonas aeruginosa; details: 18 h
Experimental: (§1) The present inventors evaluated […] in order to select peptides showing excellent performance among various peptides synthesized in the Example 1. Particularly, in order to measure the antimicrobial activity of the peptide, after preparing Gram-positive bacteria Staphylococcus aureus (S. aureus) and Gram-negative bacteria Pseudomonas aeruginosa (P. aeruginosa), the bacteria were plated on agar plate medium by fourth streaking and cultured overnight in a 36° C. incubator. The next day, the strain colonies produced on the agar plate medium were inoculated into 3 ml nutrient medium and cultured overnight in a stirring incubator at 36° C. and 220 rpm. The next day, the bacteria were diluted to measure absorbance at 600 nm, adjusted to OD600=0.5, and diluted in a 1:100 ratio in nutrient medium. Then, the peptides prepared in the above Examples were serially diluted in concentrations of 0, 1.25, 2.5, 5, 10, and 20 μM in a nutrient medium to prepare 1 ml each, and then inoculated with 1 ml of the diluted bacteria. Subsequently, the mixture was stirred under conditions of 36° C. and 220 rpm, and incubated for 18 hours, and absorbance at 600 nm was measured.
(§2) As a result, 20 peptides showing high antibacterial activity against P. aeruginosa and S. aureus) were selected (FIGS. 2 and 3).

S. aureus = assay type: cell-based, Staphylococcus aureus; details: 18 h
Experimental: as §1, §2

Structure (SMILES) | pEC50 (FPR2) | Antimicrobial activity (IC50, μg/ml) P. aeruginosa (P. aeruginosa) | Antimicrobial activity (IC50, μg/ml) S. aureus (S. aureus)
CCCC[C@H](NC(=O)[C@H](CCCNC(=N)N)NC(=O)[C@H](Cc1c[nH]c2ccccc12)NC(=O)[C@H](Cc1c[nH]c2ccccc12)NC(=O)[C@H](CCCNC(=N)N)NC(=O)[C@H](Cc1ccc2ccccc2c1)NC(C)=O)C(=O)N[C@@H](Cc1c[nH]c2ccccc12)C(=O)N[C@@H](Cc1c[nH]c2ccccc12)C(=O)N[C@@H](CCCNC(=N)N)C(=O)N[C@@H](Cc1c[nH]c2ccccc12)C(=O)N[C@H](CCSC)C(N)=O [Peptide V23_Ac, Ac-ZRWWR-Nle-WWRWm-NH2] (Ac-[2Nal]RWWR[Nle]WWRW[dM]-NH2) | 7.21 | >50 µg/mL | 13.3 µg/mL
CSCC[C@@H](NC(=O)[C@H](Cc1c[nH]c2ccccc12)NC(=O)[C@H](CCCNC(=N)N)NC(=O)[C@H](Cc1c[nH]c2ccccc12)NC(=O)[C@H](Cc1c[nH]c2ccccc12)NC(=O)[C@H](CCCNC(=N)N)NC(=O)[C@H](CCCNC(=N)N)NC(C)=O)C(N)=O [Peptide V24_Ac, Ac-RRWWRWm-NH2] (Ac-RRWWRW[dM]-NH2) | 7.23 | 47.8 µg/mL | 24.0 µg/mL
